The record followed here is article PMC13541837, “High-yield production and functional analysis of novel rhizobial-type glutaminase-free L-asparaginase from Paenibacillus thiaminolyticus” (Folia Microbiologica, 2025).

Experiment [1] addresses L-asparaginase from Paenibacillus thiaminolyticus (isoenzyme 1) (Paenibacillus thiaminolyticus). The experiment can be described thus: SEC; HiPrep 16/60 Sephacryl S-100 HR, flow rate 0.5 mL/min, 50 mM phosphate (K+) buffer pH 8.0; standards lysozyme (14 kDa), amylase (55 kDa), aldolase (160 kDa).
Experiment [2] deals with T1, ASN339Pt iso 1 (Paenibacillus thiaminolyticus, UniProt A0AAP9J308).
T1 construct: gene M5W83_23570; motifs RSSSKPVQAL and NCSGKHLGV; not isoenzyme 2 WP_087440700.1
T1 sequence (A0AAP9J308 entry or part of it): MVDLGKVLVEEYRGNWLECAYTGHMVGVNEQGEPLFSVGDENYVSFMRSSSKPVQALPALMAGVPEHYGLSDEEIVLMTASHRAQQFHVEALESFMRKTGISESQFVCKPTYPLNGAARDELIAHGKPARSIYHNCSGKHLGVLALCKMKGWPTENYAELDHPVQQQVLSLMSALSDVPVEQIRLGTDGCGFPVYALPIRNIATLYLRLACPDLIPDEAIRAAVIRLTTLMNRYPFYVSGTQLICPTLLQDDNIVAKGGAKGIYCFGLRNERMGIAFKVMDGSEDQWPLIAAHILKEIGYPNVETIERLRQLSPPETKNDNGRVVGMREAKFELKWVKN
Briefly: ammonia release, Nessler's reagent, […] nm; modified substrate inhibition model (Eq. […], n = […]). Format: biochemical. The note with it: 100 mM Tris pH 9.0, 37 °C, 10 min (standard assay); L-asparagine 1.9-145 mmol L^-1; fit with substrate inhibition; substrate inhibition constant, two additional substrate molecules (n = 2), active sit.

Experiment [3] concerns the target T1, ASN339Pt iso 1. The description is as above. The experiment is classed as biochemical. The note with it: 100 mM Tris pH 9.0, 37 °C, 10 min (standard assay); L-asparagine 1.9-145 mmol L^-1; fit with substrate inhibition; read-out: Results (according to Eq. (2)).

By stoichiometry N is commonly meant a count of units in the complex or per binding partner. “L-asparaginase from Paenibacillus thiaminolyticus (isoenzyme 1)”: the stoichiometry N in experiment [1] stood at 2.

`NC(=O)C[C@H](N)C(=O)O` [L-asparagine]: the “Results (according to Eq. (2))” value at ASN339Pt iso 1 [2] came out at 32 ± 5 mmol/L. Besides, the Km on ASN339Pt iso 1 [3] came out at 26 ± 8 mM.
